Source: patent US4292317A, “1,4-Dihydro-quinoline-3-carboxylic acid derivatives, process for their preparation and compositions containing them” (Laboratorie Roger Bellon, priority 1977, dated 1981)
Converted amounts (≈) assume the structure as drawn. Like-named read-outs stand apart in the source and are kept apart here.

Legend:
Type in all cases: cell-based
Staph. 9.144 = test: M.I.C. in vitro, nutrient agar dilution; conditions: 18 h, read-out: M.I.C.
Protocol: (§1) After sterilisation at 120° C., the pH was 6.8.
(§2) The minimum inhibitory concentrations (M.I.C.) were determined by dilution of the test compounds in this mixture, the concentration ranging from 0.05 to 100 μg/cm^3 in a geometric progression with a factor of 2.
(§3) The inoculation of the dishes was carried out by means of a multiple inoculator with 10^-3 dilutions of 18 hour old broth cultures.
(§4) The dishes were placed in an oven at 37° C. and the readings were taken afer an incubation time of 18 hours. The M.I.C. was taken as the lowest concentration which inhibited a culture.

Providentia 0223 = test: M.I.C. in vitro, nutrient agar dilution; conditions: 18 h, read-out: M.I.C.
Protocol: as §1, §2, §3, §4

Klebs. pneum. 10.031 = test: M.I.C. in vitro, nutrient agar dilution; conditions: 18 h, read-out: M.I.C.
Protocol: as §1, §2, §3, §4

Esch. coli 54.127 O.M.S. = test: M.I.C. in vitro, nutrient agar dilution; conditions: Escherichia coli, 18 h, read-out: M.I.C.
Protocol: as §1, §2, §3, §4

Pr. morganii A.236 = test: M.I.C. in vitro, nutrient agar dilution; conditions: Morganella morganii, 18 h, read-out: M.I.C.
Protocol: as §1, §2, §3, §4

Esch. coli 95 I.S.M. = test: M.I.C. in vitro, nutrient agar dilution; conditions: Escherichia coli, 18 h, read-out: M.I.C.
Protocol: as §1, §2, §3, §4

Arizona 6.211 = test: M.I.C. in vitro, nutrient agar dilution; conditions: 18 h, read-out: M.I.C.
Protocol: as §1, §2, §3, §4

Serratia = test: M.I.C. in vitro, nutrient agar dilution; conditions: 18 h, read-out: M.I.C.
Protocol: as §1, §2, §3, §4

Ps. aeruginosa 72.345 = test: M.I.C. in vitro, nutrient agar dilution; conditions: Pseudomonas aeruginosa, 18 h, read-out: M.I.C.
Protocol: as §1, §2, §3, §4

S. enteritidis Danysz = test: M.I.C. in vitro, nutrient agar dilution; conditions: Salmonella enterica, 18 h, read-out: M.I.C.
Protocol: as §1, §2, §3, §4

Esch. coli 111 B4 = test: M.I.C. in vitro, nutrient agar dilution; conditions: Escherichia coli, 18 h
Protocol: as §1, §2, §3, §4

Sh. sonnei I.P.S. = test: M.I.C. in vitro, nutrient agar dilution; conditions: Shigella sonnei, 18 h
Protocol: as §1, §2, §3, §4

Pr. mirabilis Nig = test: M.I.C. in vitro, nutrient agar dilution; conditions: Proteus mirabilis, 18 h, read-out: M.I.C.
Protocol: as §1, §2, §3, §4

Ps. aeruginosa A.22 = test: M.I.C. in vitro, nutrient agar dilution; conditions: Pseudomonas aeruginosa, 18 h, read-out: M.I.C.
Protocol: as §1, §2, §3, §4

Strepto A 561 = test: M.I.C. in vitro, nutrient agar dilution; conditions: 18 h
Protocol: as §1, §2, §3, §4

Strepto D.M. 19 = test: M.I.C. in vitro, nutrient agar dilution; conditions: 18 h, read-out: M.I.C.
Protocol: as §1, §2, §3, §4

S. oranienburg 1066 = test: M.I.C. in vitro, nutrient agar dilution; conditions: Salmonella enterica, 18 h, read-out: M.I.C.
Protocol: as §1, §2, §3, §4

Bord. bronchis. 4.617 = test: M.I.C. in vitro, nutrient agar dilution; conditions: 18 h, read-out: M.I.C.
Protocol: as §1, §2, §3, §4

B. subtilis = test: M.I.C. in vitro, nutrient agar dilution; conditions: Bacillus subtilis, 18 h, read-out: M.I.C.
Protocol: as §1, §2, §3, §4

Staph. 209 P = test: M.I.C. in vitro, nutrient agar dilution; conditions: 18 h, read-out: M.I.C.
Protocol: as §1, §2, §3, §4

Pr. vulgaris 12-53 = test: M.I.C. in vitro, nutrient agar dilution; conditions: Proteus vulgaris, 1253, 18 h, read-out: M.I.C.
Protocol: as §1, §2, §3, §4

Salm. typhi 0901 = test: microbe, parasite or virus in culture; conditions: Salmonella enterica, 18 h
Protocol: as §1, §2, §3, §4

Work on `C=Cn1cc(C(=O)O)c(=O)c2cc(F)c(N3CCN(C)CC3)cc21` [Example 41, 6-Fluoro-7-(4-methyl-piperazinyl)-4-oxo-1-vinyl-1,4-dihydro-quinoline-3-carboxylic acid] yielded an MIC (Staph. 9.144; Table III, Staph. 9.144) of 0.2 µg/mL (≈ 0.604 µM), an MIC (Providentia 0223; Table III, Providentia 0223) of 0.8 µg/mL (≈ 2.41 µM) and an MIC (Klebs. pneum. 10.031; Table III, Klebs. pneum. 10.031) of 0.1 µg/mL (≈ 0.302 µM). The MIC (Esch. coli 54.127 O.M.S.; Table III, Esch. coli 54.127 O.M.S.) was 0.1 µg/mL (≈ 0.302 µM), the MIC (Pr. morganii A.236; Table III, Pr. morganii A. 236) was 0.05 µg/mL (≈ 0.151 µM) and the MIC (Esch. coli 95 I.S.M.; Table III, Esch. coli 95 I.S.M.) was 0.1 µg/mL (≈ 0.302 µM). For the same molecule, the MIC (Arizona 6.211; Table III, Arizona 6.211) was 0.1 µg/mL (≈ 0.302 µM), the MIC (Serratia; Table III) was 0.4 µg/mL (≈ 1.21 µM) and the MIC (Ps. aeruginosa 72.345; Table III, Pd. aeruginosa 72.345) was 0.8 µg/mL (≈ 2.41 µM). For the same molecule, the MIC (S. enteritidis Danysz; Table III, S. enteritidis Danysz) was 0.1 µg/mL (≈ 0.302 µM), the MIC (Esch. coli 111 B4; Table III, Esch. coli 111 B4) was 0.1 µg/mL (≈ 0.302 µM) and the MIC (Sh. sonnei I.P.S.; Table III, Sh. sonnei I.P.S., read-out: M.I.C.) was 0.1 µg/mL (≈ 0.302 µM). The MIC (Pr. mirabilis Nig; Table III, Pr. mirabilis Nig) was 0.05 µg/mL (≈ 0.151 µM), the MIC (Ps. aeruginosa A.22; Table III, Ps. aeruginosa A.22) was 0.4 µg/mL (≈ 1.21 µM) and the MIC (Strepto A 561; Table III, Strepto A 561) was 12.5 µg/mL (≈ 37.7 µM). It also gave an MIC (Strepto D.M. 19; Table III, Strepto D.M. 19) of 3.1 µg/mL (≈ 9.36 µM), an MIC (S. oranienburg 1066; Table III, S. oranienburg 1066) of 1.6 µg/mL (≈ 4.83 µM) and an MIC (Bord. bronchis. 4.617; Table III, Bord. bronchis. 4.617) of 1.6 µg/mL (≈ 4.83 µM). The MIC (B. subtilis; Table III, B. Subtilis) was 0.1 µg/mL (≈ 0.302 µM), the MIC (Staph. 209 P; Table III, Staph. 209 P) was 0.1 µg/mL (≈ 0.302 µM) and the MIC (Pr. vulgaris 12-53; Table III, Pr. vulgaris 12-53) was 0.05 µg/mL (≈ 0.151 µM). It also gave an MIC (Salm. typhi 0901; Table III, Salm. typhi 0901) of 0.1 µg/mL (≈ 0.302 µM).
Molecule `CCn1cc(C(=O)O)c(=O)c2cc(Cl)c(N3CCN(C)CC3)cc21` [Example 1, 6-Chloro-1-ethyl-7-(4-methylpiperazinyl)-4-oxo-1,4-dihydro-quinoline-3-carboxylic acid] has an MIC (Staph. 9.144; Table 2, Staph. 9.144 (Gram positive)) of 0.4 to 1.6 µg/mL (≈ 1.14 to 4.57 µM), an MIC (Providentia 0223; Table 2, Providentia 0223 (Gram negative)) of 3.1 to 12.5 µg/mL (≈ 8.86 to 35.7 µM) and an MIC (Klebs. pneum. 10.031; Table 2, Klebs. pneum. 10.031 (Gram negative)) of 0.2 µg/mL (≈ 0.572 µM). The MIC (Esch. coli 54.127 O.M.S.; Table 2, Esch. coli 54.127 O.M.S. (Gram negative)) was 0.2 to 0.4 µg/mL (≈ 0.572 to 1.14 µM), the MIC (Pr. morganii A.236; Table 2, Pr. morganii A.236 (Gram negative)) was 0.2 to 0.8 µg/mL (≈ 0.572 to 2.29 µM) and the MIC (Esch. coli 95 I.S.M.; Table 2, Esch. coli 95 I.S.M. (Gram negative)) was 0.4 to 0.8 µg/mL (≈ 1.14 to 2.29 µM). It also gave an MIC (Arizona 6.211; Table 2, Arizona 6.211 (Gram negative)) of 0.2 to 0.8 µg/mL (≈ 0.572 to 2.29 µM), an MIC (Serratia; Table 2, Berratia (Gram negative)) of 1.6 to 3.1 µg/mL (≈ 4.57 to 8.86 µM) and an MIC (Ps. aeruginosa 72.345; Table 2, Ps. aeruginosa 72.345 (Gram negative)) of 3.1 to 6.2 µg/mL (≈ 8.86 to 17.7 µM). For the same molecule, the MIC (S. enteritidis Danysz; Table 2, S. enteritidis Danysz (Gram negative)) was 0.4 to 1.6 µg/mL (≈ 1.14 to 4.57 µM), the MIC (Esch. coli 111 B4; Table 2, Esch. coli 111 B4 (Gram negative)) was 0.2 to 0.4 µg/mL (≈ 0.572 to 1.14 µM) and the MIC (Sh. sonnei I.P.S.) was 0.2 to 0.85 µg/mL (≈ 0.572 to 2.43 µM). For the same molecule, the MIC (Pr. mirabilis Nig; Table 2, Pr. mirabilis Nig (Gram negative)) was 0.4 to 0.8 µg/mL (≈ 1.14 to 2.29 µM), the MIC (Ps. aeruginosa A.22; Table 2, Ps. aeruginosa A.22 (Gram negative)) was 3.1 to 6.2 µg/mL (≈ 8.86 to 17.7 µM) and the MIC (Strepto A 561; Table 2, Strepto A 561 (Gram positive)) was 12.5 to 50 µg/mL (≈ 35.7 to 143 µM). For the same molecule, the MIC (Strepto D.M. 19; Table 2, Strepto D.M. 19 (Gram positive)) was 1.6 to 3.1 µg/mL (≈ 4.57 to 8.86 µM), the MIC (S. oranienburg 1066; Table 2, S. oranienburg 1066 (Gram negative)) was 12.5 to 25 µg/mL (≈ 35.7 to 71.5 µM) and the MIC (Bord. bronchis. 4.617; Table 2, Bord. bronchis. 4.617 (Gram negative)) was 1.6 to 6.2 µg/mL (≈ 4.57 to 17.7 µM). For the same molecule, the MIC (B. subtilis; Table 2, B. subtilis (Gram positive)) was 0.2 to 0.4 µg/mL (≈ 0.572 to 1.14 µM), the MIC (Staph. 209 P; Table 2, Staph. 209 P (Gram positive)) was 0.4 µg/mL (≈ 1.14 µM) and the MIC (Pr. vulgaris 12-53; Table 2, Pr. vulgaris 12-53 (Gram negative)) was 0.4 to 1.6 µg/mL (≈ 1.14 to 4.57 µM). For the same molecule, the MIC (Salm. typhi 0901; Table 2, Salm. typhi 0901 (Gram negative)) was 0.4 to 1.6 µg/mL (≈ 1.14 to 4.57 µM).
